# Measurements taken from patent EP0314828A1, “4-Phenyl-1,2,3,4-tetrahydroisoquinolins as ulcer agents” (S O "PHARMACHIM", priority 1987, dated 1989).
# Where two headings read alike, the source gives them in different places.
# Assays:
# [1] = test system: durch Indometacin hervorgerufenen Geschwüren; assay: indometacin-induced ulcer model in rats; format: in vivo, Ratten
# Experimental: Die Versuche werden mit 50 weißen, männlichen Ratten der Rasse Wistar mit einem Gewicht von 170 bis 200 g durchgeführt. Achtzehn Stunden vor dem Versuch werden die Tiere nicht gefüttert bei freiem Zugang zu Wasserquellen. Das Indometacin wird in einer Dosis von 35 mg/kg intraperitoneal eine halbe Stunde nach der peroralen Verabreichung der Verbindung Ia, eingeführt. In der fünften Stunde werden die Tiere getötet, die Mägen werden herausgenommen und es werden makroskopisch die destruktiven Veränderungen bestimmt. TABELLE 5
# Geschwüren nach Shei = assay: ulcer model according to Shei (ligature) in rats; format: in vivo, Ratten; settings: Table 7, Kontrolle 16
# Excerpt: Die Versuche wurden mit weißen, männlichen Ratten, Rasse Wistar, mit einem Gewicht von 180 bis 270 g durchgeführt. Die Tiere werden 48 Stunden nicht gefüttert bei freiem Zugang zu Wasserquellen. 5 Stunden nach der Ligatur werden die Tiere getötet, die Mägen werden herausgenommen und die destruktiven Veränderungen makroskopisch untersucht. Als Vergleichspräparate wurden Cimetidin und Ranitidin angewandt (Tabelle 7). TABELLE 7
# [2] = test system: Wasser-Immersions-Streßgeschwüren; assay: water-immersion stress ulcer model in rats, oral administration; format: in vivo, Ratten; set-up: Ulkusindex: scale not given here; settings: for Prozent der Unterdrückung des Ulkusindexes / Ulkusindex / Prozentsatz der Unterdrückung des Ulkusindexes: rats
# Excerpt: Die Versuche werden mit 280 weißen männlichen Ratten - Wistar-Rasse - mit einem Gewicht von 150 bis 200 g nach der Takagi K., Ishii Y, Arzneim. Forsch. Drug.Res. 17, 1544 (1967) Methode durchgeführt und entsprechend modifiziert. Achtzehn Stunden vor dem Versuch werden die Tiere nicht gefüttert bei freiem Zugang zu Wasserquellen. Die Verbindungen der allgemeinen Formel I werden oral verabreicht; anschließend werden die Ratten, zur Verhinderung jeglicher Bewegung, auf dem Rücken an einer Unterlage angebunden, untereinander isoliert und in bis auf 17 - 18° C temperiertes Wasser getaucht. Fünf Stunden später wurden die Tiere getötet, ihre Mägen herausgenommen und makroskopische destruktive Änderungen festgestellt.
# Die Prüfmethode ist dieselbe wie in Beispiel 1.
# [3] = test system: durch Reserpin hervorgerufenen Geschwüren; assay: reserpine-induced ulcer model in rats; format: in vivo, Ratten; set-up: Ulkusindex: scale not given here; settings: for Prozentsatz der Unterdrückung des Ulkusindexes / Ulkusindex: Table 6, rats; for Ulkusindex: Kontrolle 44,58
# Experimental: Die Versuche werden mit 180 weißen, männlichen Ratten - Rasse Wistar - mit einem Gewicht von 180 bis 270 g durchgeführt. Die Tiere werden 48 Stunden nicht gefüttert bei freiem Zugang zu Wasserquellen. Die Geschwüre wurden hervorgerufen durch die Injektion von 5 mg/kg Reserpin. Eine halbe Stunde vor Einführung des Reserpins erhalten die Tiere peroral verschiedene Dosen von Ia, die Kontrolltiere Wasser, 24 Stunden nach Einführung des Reserpins werden die Tiere mit Thiopental getötet. Die destruktiven Magenveränderungen werden makroskopisch bestimmt. Es wurden Vergleichsuntersuchungen mit Cimetidin und Ranitidin (Tabelle 6) durchgeführt.
# acute toxicity in mice = settings: mouse, in vivo, Mäusen, read-out: LD₅₀
# Streßgeschwüren = settings: experimental models of stress ulcers in mice; M. Bickel, Arzn.Forsch. 30 (1), 69, 1980; cited from earlier work
# sauere Magensekret = settings: in contrast to Histamin-H₂-Antagonisten; M. Bickel, Arzn.Forsch. 30 (1), 69, 1980; cited from earlier work
# [4] = Table 1, peroral, Dosis 1 mg/kg, 5 h immersion
# [5] = Table 1, peroral, Dosis 1 mg/kg, 5 h immersion, Kontrolle 55,1
smiles,measurement,setting,value
"CCOC(=O)Nc1cccc2c1CN(C)CC2c1ccc(Cl)cc1 (racemic) [Ia, 2-Methyl-4-/4-Chlorphenyl/-8-Ethoxykarbonylamino-1,2,3,4-tetrahydroisochinolin]",Prozentsatz der Unterdrückung des Ulkusindexes,"[1]; Table 5, peroral, 0,050 mg/kg",37 Prozent
same,Ulkusindex,"[1]; Table 5, peroral, 0,050 mg/kg, Indometacin 35 mg/kg i.p., Kontrolle 19,5","12,2"
same,Prozentsatz der Unterdrückung des Ulkusindexes,"[1]; Table 5, peroral, 0,250 mg/kg","40,6 Prozent"
same,Ulkusindex,"[1]; Table 5, peroral, 0,250 mg/kg, Kontrolle 19,5","10,4"
same,Prozentsatz der Unterdrückung des Ulkusindexes,"[1]; Table 5, peroral, 0,500 mg/kg",52 Prozent
same,Ulkusindex,"[1]; Table 5, peroral, 0,500 mg/kg, Kontrolle 19,5","9,3"
same,Prozentsatz der Unterdrückung des Ulkusindexes,"[1]; Table 5, peroral, 1,100 mg/kg",78 Prozent
same,Ulkusindex,"[1]; Table 5, peroral, 1,100 mg/kg, Kontrolle 19,5","4,2"
same,Unterdrückungsprozentsatz,"[1]; peroral, minimal dose printed as 0,1 mg/kg",37
same,Ulkusindex,"[1]; peroral, minimal dose printed as 0,1 mg/kg, Kontrolltiere 19,5","12,2"
same,Ulkusindex,"Geschwüren nach Shei; rats, 0,100 mg/kg, 5 h after ligature",22
same,Ulkusindex,"Geschwüren nach Shei; rats, 0,500 mg/kg",13
same,Ulkusindex,"Geschwüren nach Shei; rats, 1,5 mg/kg","7,13"
same,Ulkusindex,"Geschwüren nach Shei; rats, 1,000 mg/kg","8,25"
same,Prozent der Unterdrückung des Ulkusindexes,[2]; [4],"92,1 Prozent"
same,Ulkusindex,[2]; [5],"4,33"
same,Prozent der Unterdrückung des Ulkusindexes,"[2]; Table 3, oral, 0,100 mg/kg",46 Prozent
same,Ulkusindex,"[2]; Table 3, oral, 0,100 mg/kg, Kontrolle 76.6","41,3"
same,Prozent der Unterdrückung des Ulkusindexes,"[2]; Table 3, oral, 0,250 mg/kg","57,3 Prozent"
same,Ulkusindex,"[2]; Table 3, oral, 0,250 mg/kg, Kontrolle 76.6","32,7"
same,Prozent der Unterdrückung des Ulkusindexes,"[2]; Table 3, oral, 0,500 mg/kg","75,5 Prozent"
same,Ulkusindex,"[2]; Table 3, oral, 0,500 mg/kg, Kontrolle 76.6","18,8"
same,Prozent der Unterdrückung des Ulkusindexes,"[2]; Table 3, oral, 1,000 mg/kg","85,00 Prozent"
same,Ulkusindex,"[2]; Table 3, oral, 1,000 mg/kg, Kontrolle 76.6","11,3"
same,höhere Ulkusaktivität im Vergleich zu Ranitidin,[2]; ratio of doses for maximal suppression: Ia 1 mg/kg vs Ranitidin 30 mg/kg (Tables 3 and 4),30 fach
same,Prozentsatz der Unterdrückung des Ulkusindexes,"[3]; peroral, 1 mg/kg","47,2 Prozent"
same,Ulkusindex,"[3]; peroral, 1 mg/kg","23,5"
same,Prozentsatz der Unterdrückung des Ulkusindexes,"[3]; peroral, 2 mg/kg","57,37 Prozent"
same,Ulkusindex,"[3]; peroral, 2 mg/kg","19,00"
same,Prozentsatz der Unterdrückung des Ulkusindexes,"[3]; peroral, 3 mg/kg","41,00 Prozent"
same,Ulkusindex,"[3]; peroral, 3 mg/kg","26,00"
same,Prozentsatz der Unterdrückung des Ulkusindexes,"[3]; peroral, 0,250 mg/kg","6,9 Prozent"
same,Ulkusindex,"[3]; peroral, 0,250 mg/kg, Reserpin 5 mg/kg","41,5"
same,Prozentsatz der Unterdrückung des Ulkusindexes,"[3]; peroral, 0,500 mg/kg",17 Prozent
same,Ulkusindex,"[3]; peroral, 0,500 mg/kg",37
same,Prozentsatz der Unterdrückung des Ulkusindexes,"[3]; peroral, 1,5 mg/kg","52,15 Prozent"
same,Ulkusindex,"[3]; peroral, 1,5 mg/kg","21,33"
same,Ulkuseffekt gegenüber Vergleichspräparaten Cimetidin und Ranitidin,"[3]; maximal effect of Ia at 1,5 and 2 mg/kg vs Cimetidin 100 mg/kg and Ranitidin 30 mg/kg",mehrfach höher
same,LD50,"acute toxicity in mice; ip, intraperitoneal",125 mg/kg
same,LD50,acute toxicity in mice; oral,250 mg/kg
"CCOC(=O)Nc1cccc2c1CN(C)CC2c1ccc(Cl)cc1.O=C(O)/C=C\C(=O)O (racemic) [Ib, /+/-2-Methyl-4-/4-chlorphenyl/8-ethoxycarbonylamino-1,2,3,4-tetrahydroisochinolin-saures Maleat]",Ulkusindex,[2]; [5],"7,00"
same,Aktivität im Vergleich mit /+/(Ib),"[2]; Table 1 data, 1 mg/kg peroral",vierfach niedrigere Aktivität
"CCOC(=O)Nc1cccc2c1CN(C)CC2c1ccccc1 (racemic) [Ie, 2-Methyl-4-phenyl-8-ethoxycarbonylamino-1,2,3,4-tetrahydroisochinolin]",Prozent der Unterdrückung des Ulkusindexes,[2]; [4],"40,60 Prozent"
same,Ulkusindex,[2]; [5],"32,70"
"CCOC(=O)Nc1cccc2c1CN(C)CC2c1ccccc1 (racemic) [If, /+/-2-Methyl-4-phenyl-8-ethoxycarbonylamino-1,2,3,4-tetrahydroisochinolin]",Prozent der Unterdrückung des Ulkusindexes,[2]; [4],"36,30 Prozent"
same,Ulkusindex,[2]; [5],"35,10"
"CN1Cc2c(N)cccc2C(c2ccccc2)C1.O=C(O)/C=C\C(=O)O (stereo not drawn) [Alival, 2-Methyl-4-phenyl-8-amino-1,2,3,4-tetrahydroisochinolin-saueres-Maleat]",Antigeschwüreffekt,Streßgeschwüren,einen Antigeschwüreffekt aufweist
same,Inhibierung des saueren Magensekrets,sauere Magensekret,nicht inhibiert
"CNC(=NCCSCc1nc[nH]c1C)NC#N [Cimetidin, N-Cyan-N-methyl-N-2/ 4-methyl-imidazolin/methylthio-ethylguanidinium, reference compound]",Ulkusindex,"Geschwüren nach Shei; rats, 100 mg/kg","12,2"
same,Prozentsatz der Unterdrückung des Ulkusindexes,[3]; 100 mg/kg,"38,00 Prozent"
same,Ulkusindex,[3]; 100 mg/kg,"27,62"
"CCOC(=O)Nc1cccc2c1CN(C)CC2c1ccc(Cl)cc1.O=C(O)/C=C\C(=O)O (stereo not drawn) [Ic, /-/-2-Methyl-4-/4-chlorphenyl/8-ethoxycarbonylamino-1,2,3,4-tetrahydroisochinolin-saures Maleat]",Prozent der Unterdrückung des Ulkusindexes,[2]; [4],"28,20 Prozent"
same,Ulkusindex,[2]; [5],"39,58"
"CN1Cc2c(N)cccc2C(c2ccc(Cl)cc2)C1 (stereo not drawn) [Id, 2-Methyl-4-/4-chlorphenyl/-8-amino-1,2,3,4-tetrahydroisochinolin]",Prozent der Unterdrückung des Ulkusindexes,[2]; [4],"86,40 Prozent"
same,Ulkusindex,[2]; [5],"7,50"
"CCOC(=O)Nc1cccc2c1CN(C)CC2c1ccccc1.O=C(O)/C=C\C(=O)O (stereo not drawn) [Ig, /-/-2-Methyl-4-phenyl-8-ethoxycarbonylamino-1,2,3,4-tetrahydroisochinolin-saures Maleat]",Prozent der Unterdrückung des Ulkusindexes,[2]; [4],"48,00 Prozent"
same,Ulkusindex,[2]; [5],"28,60"
"CN1Cc2c(Cl)cccc2C(c2ccccc2)C1 (stereo not drawn) [Ih, 2-Methyl-4-phenyl-8-chlor-1,2,3,4-tetrahydroisochinolin]",Prozent der Unterdrückung des Ulkusindexes,[2]; [4],"36,60 Prozent"
same,Ulkusindex,[2]; [5],"34,90"
"CNC(=C[N+](=O)[O-])NCCSCc1ccc(CN(C)C)o1 [Ranitidin, N-/5-Dimethylamino-methyl/-2-furanil-methyl-thioethyl-/N-methyl-2-nitro/-1,1-ethan-diamin, reference compound]",Ulkusindex,"Geschwüren nach Shei; rats, 30 mg/kg",9
same,Prozentsatz der Unterdrückung des Ulkusindexes,"[2]; Table 4, peroral, 0,5 mg/kg",~27 Prozent
same,Ulkusindex,"[2]; Table 4, peroral, 0,5 mg/kg, Kontrolle 44,3","32,3"
same,Prozentsatz der Unterdrückung des Ulkusindexes,"[2]; Table 4, peroral, 1 mg/kg","39,27 Prozent"
same,Ulkusindex,"[2]; Table 4, peroral, 1 mg/kg, Kontrolle 44,3","26,9"
same,Prozentsatz der Unterdrückung des Ulkusindexes,"[2]; Table 4, peroral, 3 mg/kg","35,89 Prozent"
same,Ulkusindex,"[2]; Table 4, peroral, 3 mg/kg, Kontrolle 44,3","28,4"
same,Prozentsatz der Unterdrückung des Ulkusindexes,"[2]; Table 4, peroral, 10 mg/kg","48,98 Prozent"
same,Ulkusindex,"[2]; Table 4, peroral, 10 mg/kg, Kontrolle 44,3","22,6"
same,Prozentsatz der Unterdrückung des Ulkusindexes,"[2]; Table 4, peroral, 30 mg/kg","61,62 Prozent"
same,Ulkusindex,"[2]; Table 4, peroral, 30 mg/kg, Kontrolle 44,3","17,0"
same,Prozentsatz der Unterdrückung des Ulkusindexes,[3]; 30 mg/kg,"48,40 Prozent"
same,Ulkusindex,[3]; 30 mg/kg,"23,00"
